Measured values as given in ChEMBL document CHEMBL1153502, “Investigation of the pharmacophore space of Severe Acute Respiratory Syndrome coronavirus (SARS-CoV) NTPase/helicase by dihydroxychromone derivatives” (Bioorg Med Chem Lett, 2009).

How the values were obtained:
[1] = target: T1, Replicase polyprotein 1ab (Severe acute respiratory syndrome-related coronavirus, UniProt P0C6X7); test: Inhibition of ATPase activity of SARS coronavirus helicase assessed as phosphate release by malachite green assay
[2] = target: T1, Replicase polyprotein 1ab; test: Inhibition of SARS coronavirus helicase assessed as duplex-DNA unwinding by FRET based assay

SMILES | IC50 [1] [µM] | IC50 [2] [µM]
O=c1cc(CNCc2ccc(Cl)cc2)oc2ccc(O)c(O)c12 | > 50 | > 50
O=c1c(O)c(-c2ccc(O)c(O)c2)oc2cc(OCc3ccc(Cl)cc3)cc(O)c12 | 20.9 | 4.1
O=c1c(O)c(-c2ccc(O)c(O)c2)oc2cc(OCc3cccc(Cl)c3)cc(O)c12 | > 50 | 5.2
N#Cc1cccc(COc2cc(O)c3c(=O)c(O)c(-c4ccc(O)c(O)c4)oc3c2)c1 | 25.4 | 2.7
O=c1c(O)c(-c2ccc3c(c2)OCO3)oc2cc(OCc3ccc(Cl)cc3)cc(O)c12 | > 50 | 9.3
N#Cc1cccc(COc2cc(O)c3c(=O)c(O)c(-c4ccc5c(c4)OCO5)oc3c2)c1 | 42.9 | 8.1
O=c1c(O)c(-c2ccc3c(c2)OCO3)oc2cc(O)cc(O)c12 | > 50 | > 50
O=c1cc(CNCc2cccc(Cl)c2)oc2ccc(O)c(O)c12 | > 50 | > 50
N#Cc1cccc(CNCc2cc(=O)c3c(O)c(O)ccc3o2)c1 | > 50 | > 50
O=c1c(O)c(-c2ccc3c(c2)OCO3)oc2cc(OCc3cccc(Cl)c3)cc(O)c12 | > 50 | 15.4
